Key:
[1] = 101 kPa, Liquid; for speed of sound: Sing-around technique in a fixed-path interferometer
[2] = xn = mol fraction of the nth substance listed; details: 101 kPa, Liquid; for speed of sound: Sing-around technique in a fixed-path interferometer

BrCCBr [1,2-dibromoethane]
[1]
Details | mass density [kg/m3] | speed of sound [m/s]
293.15 K | 2179.59 | 1007
298.15 K | 2169.14 | 994.27

BrCCBr [1,2-dibromoethane] + CCCCCCO
[2]
Details | mass density, 293.15 K [kg/m3] | mass density, 298.15 K [kg/m3] | speed of sound, 293.15 K [m/s] | speed of sound, 298.15 K [m/s]
x1 = 0.0402 | 856.608 | 852.83 | 1296.7 | 1280
x1 = 0.0682 | 883.413 | 879.495 | 1281 | 1264.4
x1 = 0.1276 | 941.916 | 937.69 | 1249.4 | 1233.1
x1 = 0.2056 | 1022.36 | 1017.7 | 1211.2 | 1195.3
x1 = 0.2686 | 1090.47 | 1085.45 | 1182.9 | 1167.3
x1 = 0.3892 | 1228.97 | 1223.2 | 1135.2 | 1120.2
x1 = 0.4277 | 1276.43 | 1270.41 | 1121.2 | 1106.3
x1 = 0.5444 | 1427.13 | 1420.31 | 1083.6 | 1069.2
x1 = 0.6405 | 1562 | 1554.45 | 1057.4 | 1043.6
x1 = 0.7326 | 1701.64 | 1693.37 | 1036.5 | 1023.1
x1 = 0.8519 | 1899.69 | 1890.44 | 1016.8 | 1004
x1 = 0.9273 | 2036.52 | 2026.66 | 1009.9 | 997.38
x1 = 0.9587 | 2096.51 | 2086.4 | 1008.3 | 995.92
x1 = 0.9782 | 2135.29 | 2125.02 | 1007.4 | 994.76
x1 = 1 | 2179.59 | 2169.14 | 1007 | 994.27

ClCCCl [1,2-dichloroethane]
[1]
Details | mass density [kg/m3] | speed of sound [m/s]
293.15 K | 1252.77 | 1212.9
298.15 K | 1245.56 | 1193.6

ClCCCl [1,2-dichloroethane] + CCCCCCO
[2]
Details | mass density, 293.15 K [kg/m3] | mass density, 298.15 K [kg/m3] | speed of sound, 293.15 K [m/s] | speed of sound, 298.15 K [m/s]
x1 = 0.037 | 828.769 | 825.105 | 1313.2 | 1296.2
x1 = 0.0769 | 839.847 | 836.074 | 1305.3 | 1288.2
x1 = 0.1499 | 860.583 | 856.62 | 1291.7 | 1274.3
x1 = 0.2147 | 879.725 | 875.586 | 1279.7 | 1262.2
x1 = 0.2935 | 904.954 | 900.591 | 1265.2 | 1248
x1 = 0.3952 | 940.475 | 935.784 | 1247.7 | 1230
x1 = 0.4532 | 962.107 | 957.223 | 1238.5 | 1220.7
x1 = 0.5596 | 1005.05 | 999.79 | 1222.8 | 1206
x1 = 0.6113 | 1027.55 | 1022.09 | 1216.7 | 1199.8
x1 = 0.6971 | 1067.98 | 1062.14 | 1207.9 | 1189.7
x1 = 0.7791 | 1111.06 | 1104.85 | 1202.3 | 1184.3
x1 = 0.8563 | 1155.16 | 1148.59 | 1200.7 | 1182.8
x1 = 0.9335 | 1205.43 | 1198.46 | 1205.4 | 1184.3
x1 = 0.979 | 1236.99 | 1229.8 | 1211.8 | 1187.7
x1 = 1 | 1252.77 | 1245.56 | 1212.9 | 1193.6

CCCCCCO [hexan-1-ol]
[1]
Details | mass density [kg/m3] | speed of sound [m/s]
293.15 K | 818.856 | 1320.1
298.15 K | 815.281 | 1303.2

CCCCCCO [hexan-1-ol] + BrCCBr
[2], x2 = 0
Details | mass density [kg/m3] | speed of sound [m/s]
293.15 K | 818.856 | 1320.1
298.15 K | 815.281 | 1303.2

CCCCCCO [hexan-1-ol] + ClC(Cl)=C(Cl)Cl
[2], x2 = 0
Details | mass density [kg/m3] | speed of sound [m/s]
293.15 K | 818.856 | 1320.1
298.15 K | 815.281 | 1303.2

CCCCCCO [hexan-1-ol] + ClCCCl
[2], x2 = 0
Details | mass density [kg/m3] | speed of sound [m/s]
293.15 K | 818.856 | 1320.1
298.15 K | 815.281 | 1303.2

ClC(Cl)=C(Cl)Cl [tetrachloroethene]
[1]
Details | mass density [kg/m3] | speed of sound [m/s]
293.15 K | 1622.74 | 1054
298.15 K | 1614.43 | 1039

ClC(Cl)=C(Cl)Cl [tetrachloroethene] + CCCCCCO
[2]
Details | mass density, 293.15 K [kg/m3] | mass density, 298.15 K [kg/m3] | speed of sound, 293.15 K [m/s] | speed of sound, 298.15 K [m/s]
x1 = 0.0688 | 864.637 | 860.792 | 1292 | 1274.5
x1 = 0.123 | 901.521 | 897.46 | 1270.8 | 1253.7
x1 = 0.2457 | 987.759 | 983.18 | 1226.3 | 1209.5
x1 = 0.3618 | 1072.99 | 1067.89 | 1188.2 | 1171.6
x1 = 0.4502 | 1140.46 | 1134.94 | 1161.5 | 1144.9
x1 = 0.5583 | 1226.3 | 1220.26 | 1131.5 | 1115.1
x1 = 0.6518 | 1303.62 | 1297.1 | 1108.3 | 1092
x1 = 0.7068 | 1350.53 | 1343.73 | 1095.8 | 1079.5
x1 = 0.7419 | 1381.18 | 1374.19 | 1088.4 | 1072
x1 = 0.7797 | 1414.65 | 1407.46 | 1080.9 | 1064.6
x1 = 0.8315 | 1461.44 | 1453.97 | 1071.4 | 1055.6
x1 = 0.8718 | 1498.8 | 1491.15 | 1064.7 | 1049
x1 = 0.9179 | 1542.25 | 1534.33 | 1058.2 | 1043.3
x1 = 0.9504 | 1573.61 | 1565.56 | 1055 | 1041.2
x1 = 1 | 1622.74 | 1614.43 | 1054 | 1039
